Data as given in US20090258840A1, “METHOD AND COMPOSITIONS FOR TREATING HEMATOLOGICAL MALIGNANCIES” (Gilead Sciences, Inc., priority 2006, published 2009).
pEC50: −log10 of the molar value. Like-named read-outs stand apart in the source and are kept apart here.

Tests used:
[1] = test system: PHA-blast (human T-cells); assay: Anti-proliferation in human PHA-lymphoblasts (BrdU/XTT); type: cell-based; conditions: read-out: Anti-Proliferation EC50
[2] = test system: Molt 4 (T-lymphoid); assay: Anti-proliferation in Molt 4 cells; type: cell-based, human; conditions: read-out: Anti-Proliferation EC50
Procedure: (§1) Compounds were tested using human and canine lymphoblasts (stimulated with a T-cell mitogen phytohaemagglutinin (PHA) or a B-cell mitogen pokeweed mitogen (PWM)), two T-lymphoid cell lines derived from patients with acute lymphocytic leukemia (CEM and Molt-4), two myeloid cell lines derived from patients with acute myelogenous leukemia (KG-1 and HL-60), two B-lymphoid cell lines derived from Burkitt's lymphoma (Daudi and Raji), a B-lymphoid cell line from non-Hodgkin's lymphoma (RL), a T-lymphoid cell line from cutaneous T-lymphoma (PM-1), and a monocytic cell line from histiocytic lymphoma (U937). Lymphoblasts (150,000 cells per microtiter well) and leukemia/lymphoma cell lines (30,000 cells per well) were incubated with 5-fold serial dilutions of compounds for 3 days.

[3] = test system: HL-60 (Myeloid); assay: Anti-proliferation in HL-60 cells; type: cell-based, human; conditions: read-out: Anti-Proliferation EC50
Procedure: as §1

[4] = test system: U937 (Monocytic); assay: Anti-proliferation in U937 cells; type: cell-based, human; conditions: read-out: Anti-Proliferation EC50
[5] = test system: KG-1 (Myeloid); assay: Anti-proliferation in KG-1 cells; type: cell-based, human; conditions: read-out: Anti-Proliferation EC50
Procedure: as §1

[6] = test system: lymphoblasts and leukemia/lymphoma cell lines; assay: Anti-proliferation, EC50 range over the cell panel; type: cell-based; conditions: range over a variety of lymphoblasts and leukemia/lymphoma cell lines
Procedure: A variety of compounds that are used for treatment of hematologic malignancies were also tested, including a DNA polymerase inhibitor (ara-C), DNA polymerase/ribonucleotide reductase inhibitors (cladribine, clofarabine, fludarabine, gemcitabine), an adenosine deaminase inhibitor (deoxycoformycin), a DNA methylation inhibitor (decitabine), a […] (doxorubicin), and a mitosis inhibitor (vincristine). All compounds, with the exception of doxorubicin and vincristine, are nucleoside analogs; ara-C, gemcitabine, and decitabine are cytosine analogs and the rest are adenosine analogs. cpr-PMEDAP and PMEG can be considered adenosine and guanosine analogs, respectively. Compounds were tested using human and canine lymphoblasts (stimulated with a T-cell mitogen phytohaemagglutinin (PHA) or a B-cell mitogen pokeweed mitogen (PWM)), two T-lymphoid cell lines derived from patients with acute lymphocytic leukemia (CEM and Molt-4), two myeloid cell lines derived from patients with acute myelogenous leukemia (KG-1 and HL-60), two B-lymphoid cell lines derived from Burkitt's lymphoma (Daudi and Raji), a B-lymphoid cell line from non-Hodgkin's lymphoma (RL), a T-lymphoid cell line from cutaneous T-lymphoma (PM-1), and a monocytic cell line from histiocytic lymphoma (U937).
Lymphoblasts (150,000 cells per microtiter well) and leukemia/lymphoma cell lines (30,000 cells per well) were incubated with 5-fold serial dilutions of compounds for 3 days. BrdU assay was performed as follows: Lymphoblasts were incubated with 5-fold serial dilutions of compounds in microtiter plates (150,000 cells per well) for 3 days. On Day 3, cells were labeled with 10 μM BrdU for 3 hrs and the amount of BrdU incorporated into cellular DNA was quantified by Enzyme-Linked Immunosorbent Assay (ELISA). Alternatively, cells were incubated with 1 mg/mL XTT reagent (sodium 3,3′-[1[(phenylamino) carbonyl]-3,4-tetrazolium]-bis(4-methoxy-6-nitro) benzene sulfonic acid hydrate) and 1% PMS (phenazine methosulfate) for 2 hrs, and color change (mitochondrial dehydrogenase reduces yellow-colored XTT to orange-colored formazan salt) was quantified. […] Assays were repeated 2-20 times, until the standard error of the mean (SEM) became smaller than 50% of the mean value.

[7] = dog, in vivo
Procedure: • Dogs were administered various prodrugs of cpr-PMEDAP as 0.2 mg/kg 30 minute IV infusions. […] Alanine was the L isomer. • Blood was collected into potassium EDTA and separated by centrifugation. Primary blood mononuclear cells (PBMCs) were collected using CPT tubes (sodium citrate). • For analysis, plasma samples were precipitated by addition of 100 μL acetonitrile containing internal standards (D4AP and TDF) to 100 μL of plasma for prodrug analysis. After protein precipitation by centrifugation, 100 μL was transferred into another tube to be dried and then reconstituted in 100 μL water with 0.2% formic acid. An aliquot of 20 μL was injected onto the column for LC/MS/MS analysis. Analysis was done using a 150×2.0 mm, 4 μm Synergi Fusion-RP 80A column (Phenomenex) and a multistage linear gradient from 0.5 to 99% acetonitrile in the presence of 0.2% formic acid at 0.25 mL/min. Analytes were detected using a Sciex API-4000 mass spectrometer using electrospray ionization in positive MRM mode. […] Separate aliquots of cells from each time point resuspended in 100% serum were used to establish the cell quantities in each sample. Cell samples were normalized to 15×10^6 cells per sample. […] 20 μL was injected for LC/MS/MS analysis using a 50×2.0 mm, 4 μm Synergi Hydro-RP 80A column (Phenomenex) and a multistage linear gradient from 0 to 95% acetonitrile in the presence of 0.2% formic acid at 1.0 mL/min. Analytes were detected using a Sciex API-4000 mass spectrometer using electrospray ionization in positive MRM mode. • After drying, samples for dephosphorylation were treated with 1 U of calf intestinal phosphatase (alkaline phosphotase, Sigma) for 2 h in manufacturer provided buffer. Samples were then adjusted to 60% acetonitrile dried and resuspended in 60% acetonitrile containing internal standards (TDF and D4AP) and analyzed for cpr-PMEDAP as described for direct PBMC analysis.

[8] = test system: PM-1 (T-lymphoid); assay: Anti-proliferation in PM-1 cells; type: cell-based, human; conditions: read-out: Anti-Proliferation EC50
Procedure: as §1

[9] = test system: CEM (T-lymphoid); assay: Anti-proliferation in CEM cells; type: cell-based, human; conditions: read-out: Anti-Proliferation EC50
Procedure: as §1

[10] = test system: Daudi (B-lymphoid); assay: Anti-proliferation in Daudi cells; type: cell-based, human; conditions: 3 days incubation
Procedure: as §1

[11] = test system: Raji (B-lymphoid); assay: Anti-proliferation in Raji cells; type: cell-based, human; conditions: 3 days incubation
Procedure: as §1

[12] = test system: RL (B-lymphoid); assay: Anti-proliferation in RL cells; type: cell-based; conditions: Homo sapiens, 72 h, 3 days incubation
Procedure: as §1

[13] = Hygroscopicity; type: physicochemical
[14] = test system: PWM-blast (human B-cells); assay: Anti-proliferation in human PWM-lymphoblasts (BrdU/XTT); type: cell-based; conditions: B-cell, 72 h, 3 days incubation
[15] = test system: PWM-blast (canine B-cells); assay: Anti-proliferation in canine PWM-lymphoblasts (BrdU/XTT); type: cell-based; conditions: Canis lupus familiaris, B-cell, 72 h, 3 days incubation
[16] = test system: PHA-blast (canine T-cells); assay: Anti-proliferation in canine PHA-lymphoblasts (BrdU/XTT); type: cell-based; conditions: Canis lupus familiaris, T-cell, 72 h, 3 days incubation
[17] = test system: a variety of tumor cell lines; conditions: in vitro cell culture; cited from earlier work
[18] = Homo sapiens, 72 h, Molt 4 (T-lymphoid), 3 days incubation
[19] = Homo sapiens, 72 h, HL-60 (Myeloid), 3 days incubation
[20] = Homo sapiens, U-937, 72 h, U937 (Monocytic), 3 days incubation
[21] = Homo sapiens, 72 h, KG-1 (Myeloid), 3 days incubation
[22] = T-cell, 72 h, PHA-blast (human T-cells), 3 days incubation
[23] = Homo sapiens, 72 h, PM-1 (T-lymphoid), 3 days incubation
[24] = Homo sapiens, 72 h, CEM (T-lymphoid), 3 days incubation
[25] = PHA-blast (human T-cells), 3 days incubation
[26] = PM-1 (T-lymphoid), 3 days incubation
[27] = CEM (T-lymphoid), 3 days incubation
[28] = Molt 4 (T-lymphoid), 3 days incubation
[29] = HL-60 (Myeloid), 3 days incubation
[30] = U937 (Monocytic), 3 days incubation
[31] = KG-1 (Myeloid), 3 days incubation

SMILES	pEC50 ([1]; Homo sapiens, T-cell, 72 h)	pEC50 [2, 18]	pEC50 [3, 19]	pEC50 [4, 20]	pEC50 [5, 21]	pEC50 [6]	pEC50 [8, 23]	pEC50 [9, 24]	pEC50 ([10]; Homo sapiens, 72 h)	pEC50 ([11]; Homo sapiens, 72 h)	pEC50 [12]	further results
OC[C@H]1O[C@@H](n2cnc3c2NC=NC[C@H]3O)C[C@@H]1O [Deoxy coformycin]	< 3.70	< 3.70	< 3.70	< 3.70	< 3.70	< 3.70						
C[C@H](NP(=O)(COCCn1cnc2c(NC3CC3)nc(N)nc21)Oc1ccccc1)C(=O)OC(C)(C)C (stereo partly drawn) [MonoAlatBu]												PBMC to Plasma ratio [7]: 12
Nc1nc(N)c2ncn(CCOCP(=O)(O)O)c2n1 [PMEDAP, 9-(2-phosphonylmethoxyethyl)-2,6-diaminopurine]		4.55	4.66	4.61	5.12		4.64	4.70	4.85	4.60		pEC50 [1, 22]: 5.05
Nc1ccn([C@@H]2O[C@H](CO)[C@@H](O)C2(F)F)c(=O)n1 [Gemcitabine]		8.07	8.07	7.51	8.24	7.74 to 8.47	7.80	7.68	8.22	8.47	7.74	pEC50 [1, 22]: 8.02
CCOC(=O)C(C)NP(=O)(COCCn1cnc2c(NC3CC3)nc(N)nc21)NC(C)C(=O)OCC (stereo not drawn) [Compound 1]		7.56	6.67	6.40	5.98	5.98 to 7.57	6.90	6.81	7.57	7.05	7.11	hygroscopicity [13]: hygroscopic; pEC50 [1, 22]: 6.87; pEC50 [14]: 7.38; pEC50 [15]: 7.85; pEC50 [16]: 7.52
Nc1nc(Cl)nc2c1ncn2[C@H]1C[C@H](O)[C@@H](CO)O1 [Cladribine]	6.53	7.13	7.30	7.70	7.05		7.40	5.93	6.28	7.92	8.40	
Nc1nc(Cl)nc2c1ncn2[C@@H]1O[C@H](CO)[C@@H](O)[C@@H]1F [Clofarabine]	7.21	7.60	7.14	7.43	7.22	6.38 to 7.60	6.84	6.38	6.66	7.71	7.31	pEC50 [14]: 6.90; pEC50 [15]: 7.03; pEC50 [16]: 6.84
CC[C@]1(O)C[C@H]2CN(CCc3c([nH]c4ccccc34)[C@@](C(=O)OC)(c3cc4c(cc3OC)N(C=O)[C@H]3[C@@](O)(C(=O)OC)[C@H](OC(C)=O)[C@]5(CC)C=CCN6CC[C@]43[C@@H]65)C2)C1 [Vincristine]		9.40	8.70	8.55	8.49	8.28 to 9.22	8.28	8.70	9.22	8.60	8.85	pEC50 [1, 22]: 8.62; pEC50 [14]: 9.05; pEC50 [15]: 9.05; pEC50 [16]: 9.05
Nc1nc(NC2CC2)c2ncn(CCOCP(=O)(O)O)c2n1 [GS-8369, 9-(2-phosphonylmethoxyethyl)-N^6-cyclopropyl-2,6-diaminopurine]												pEC50 [1, 25]: 5.63; pEC50 [8, 26]: 5.17; pEC50 [9, 27]: 5.65; pEC50 [2, 28]: 5.83; antiproliferative and differentiation-inducing effect [17]: effective; pEC50 [3, 29]: 5.79; pEC50 [10]: 5.74; pEC50 [4, 30]: 5.35; pEC50 [5, 31]: 5.96
Nc1ccn([C@@H]2O[C@H](CO)[C@@H](O)[C@@H]2O)c(=O)n1 [Ara-C, Cytarabine]	5.74	7.64	6.67	7.42	7.25	5.74 to 7.64	6.71	6.84	6.68	7.64	6.21	
COc1cccc2c1C(=O)c1c(O)c3c(c(O)c1C2=O)C[C@@](O)(C(=O)CO)C[C@@H]3O[C@H]1C[C@H](N)[C@H](O)[C@H](C)O1 [Doxorubicin]	8.12	8.92	7.62	7.89	7.55		7.53		8.42	8.07	7.60	
Nc1nc(F)nc2c1ncn2[C@@H]1O[C@H](CO)[C@@H](O)[C@@H]1O [Fludarabine des-phosphate]	5.96	5.81	5.75	6.52	5.35		4.89	< 4.40				
Nc1ncn([C@H]2C[C@H](O)[C@@H](CO)O2)c(=O)n1 [Decitabine]	6.69											pEC50 ([8]; Homo sapiens, T-lymphoid, 72 h): < 4.70; pEC50 ([9]; Homo sapiens, T-lymphoid, 72 h): 5.52; pEC50 ([2]; Homo sapiens, MOLT-4, 72 h): 6.24; pEC50 ([3]; Homo sapiens, HL-60, 72 h): 5.42; pEC50 ([4]; Homo sapiens, U-937, 72 h): 7.11; pEC50 ([5]; Homo sapiens, KG-1, 72 h): 7.08
CC(C)OC(=O)[C@H](C)NP(=O)(COCCn1cnc2c(NC3CC3)nc(N)nc21)N[C@@H](C)C(=O)OC(C)C [BisAlaiPr]												PBMC to Plasma ratio [7]: 1.2
C[C@H](NP(=O)(COCCn1cnc2c(NC3CC3)nc(N)nc21)Oc1ccccc1)C(=O)OC(C)(C)C (single isomer, unassigned) [MonoAlatBu(A)]												PBMC to Plasma ratio [7]: 19
CC(C)OC(=O)[C@H](C)NP(=O)(COCCn1cnc2c(NC3CC3)nc(N)nc21)Oc1ccccc1 (stereo partly drawn) [MonoAlaiPr]												PBMC to Plasma ratio [7]: 17
Nc1nc2c(ncn2CCOCP(=O)(O)O)c(=O)[nH]1 [PMEG, 9-(2-phosphonylmethoxyethyl)guanine]												pEC50 [1, 25]: 5.77; pEC50 [8, 26]: 5.40; pEC50 [9, 27]: 5.28; pEC50 [2, 28]: 5.76; pEC50 [3, 29]: 5.41; pEC50 [10]: 6.00; pEC50 [4, 30]: 5.40; pEC50 [11]: 5.56; pEC50 [5, 31]: 5.53
